pIC50: −log10 of the molar value.
Assays:
HLA-DR4Dw4 = biological target: T1, HLA-DR4Dw4 (Homo sapiens, UniProt P01903+P01911, A100K/A169T/F76Y/I96L/K127E/L162R/M171V/N62H/P40V/Q125Y/R42H/S133A/S149N/S66Y/V115G/V209L/W38E); assay: Variant to Test A: peptide selectivity binding assay, HLA-DR4Dw4
T1 construct: a cDNA encoding the β chain is cloned into the transfer vector pAcUW1; made in house; host or cells: Sf21 insect cells, double-recombinant baculovirus
Procedure: (§1) As a variant to test A, the ability of a peptide of the invention to bind to one or more HLA-DR molecules was assessed as follows:
(§2) (i) Purification of HLA-DR Types from Cell Lines
(§3) The method used was a modification of that described by Gorga et al, 1987, J.Biol.Chem. 262, 16087-16094. Human HLA-DR antigens were purified from various cell lines by immunoaffinity chromatography. […] Protein content was determined by a Biorad protein assay and purity by SDS-PAGE electrophoresis. […]
(§4) 200 nM biotin-FHA307-320 in phosphate buffered saline (PBS) was incubated with either purified HLA-DR1, DR2, DR4Dw4, DR4Dw13 or DR4Dw14, (2-20μg/ml) in V-well microtitre plates (Nunc) with or without inhibitor peptides in assay buffer (PBS, 0.01% NP40 (Sigma.)) For DR3 inhibition, 400 nM Biotin-Ahx-(D)Ala-Ala-Ala-Che-lle-Ala-Ala-Ala-Thr-Leu-Lys-Ala-Ala-(D)Ala-OH was incubated with purified DR3 (20 μg/ml.), and incubated as above. After 48 hours, the incubates were treated, and absorbance readings taken as described in Test A. The inhibitory activity of peptides, expressed as IC50 values, was calculated using Microcal Origin software on a PC.

HLA-DR4Dw14 = assay: Variant to Test A: peptide selectivity binding assay, HLA-DR4Dw14; set-up: species or system Human
Procedure: as §1, §2, §3, §4

HLA-DR3 = assay: Variant to Test A: peptide selectivity binding assay, HLA-DR3; set-up: species or system Human; conditions: did not bind significantly
Procedure: as §1, §2, §3, §4

HLA-DR1 = biological target: T2, HLA-DR1 (Homo sapiens, UniProt P01903+P01911, A100R/D57E/F55L/F60I/F76Y/I96L/L162R/M171V/P40L/Q125E/R42F/V115G/Y59C); assay: Variant to Test A: peptide selectivity binding assay, HLA-DR1
T2 construct: Human HLA-DR antigens were purified from various cell lines; endogenous in cells; host or cells: Hom 2 cell line
Procedure: as §1, §2, §3, §4

HLA-DR2 = assay: Variant to Test A: peptide selectivity binding assay, HLA-DR2; set-up: species or system Human
Procedure: as §1, §2, §3, §4

For “Phv-Ala-Arg-Ala-IIb-Ala-Arg-Ala-Papa-NH2 [Example 23]”, the “binding to HLA-DR4Dw4” value (HLA-DR4Dw4) was “bind significantly”, the “binding to HLA-DR4Dw14” value (HLA-DR4Dw14) was “bind significantly” and the pIC50 (HLA-DR3) was less than 4.00. The “binding to HLA-DR1” value (HLA-DR1) was “bind significantly” and the “binding to HLA-DR2” value (HLA-DR2) was “bind significantly”.
